Reference: the supplement of paper PMC11451515

Tests used:
Details in all cases: 48 h
SEM cells [1] = experiment: cell viability relative to DMSO control; higher = less cytotoxic
Method in brief: (§1)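 Leukemia cells (NOMO1 or SEM, 500 cells/well; P12-Ichikawa, 1000 cells/well) were seeded in 5 μl in 1536-well plates after at least four passages of adaptation to each medium. They received library compounds in DMSO by pin dosing, 11 threefold points from 47 μM to 0.79 nM. Luminescence with CellTiter-Glo One was read after 48 h at 37°C. Viability is stated per plate relative to DMSO wells, with cell-free wells as background.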

P12-Ichikawa [2] = experiment: as above
Method in brief: as §1

NOMO1 [3] = experiment: as above
Method in brief: as §1

SEM cells [4] = experiment: AUC of viability dose-response curve (% viability x log10 dose units); higher = less sensitive
Method in brief: (§2)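 Medium-adapted leukemia cells in 1536-well plates, at 500 or 1000 cells/well, were incubated for 48 h at 37°C with library compounds in DMSO at 11 threefold doses from 47 μM to 0.79 nM. CellTiter-Glo One luminescence normalised per plate to DMSO and cell-free wells was fitted with a four-parameter log-logistic model over log10 doses. Area under the curve was integrated from this fit by trapezoidal rule, with curves beyond full viability scaled and failed quality-control curves removed.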

P12-Ichikawa [5] = experiment: as above
Method in brief: as §2

NOMO1 [6] = experiment: as above
Method in brief: as §2

C[C@@H]1CC[C@@]2(OC1)O[C@H]3C[C@H]4[C@@H]5C/C=C6/C[C@H](CC[C@]6(C)[C@H]5CC[C@]4(C)[C@H]3[C@@H]2C)O[C@@H]7O[C@H](CO)[C@@H](O[C@@H]8O[C@@H](C)[C@H](O)[C@@H](O)[C@H]8O)[C@H](O)[C@H]7O[C@@H]9O[C@@H](C)[C@H](O)[C@@H](O)[C@H]9O
cell viability [%]
Details	NOMO1 [3]	P12-Ichikawa [2]	SEM cells [1]
HPLM + 10% dialyzed FBS, 0.000781 µM	108	124	92.6
HPLM + 10% dialyzed FBS, 0.00234 µM	122	128	79.3
HPLM + 10% dialyzed FBS, 0.00702 µM	122	119	97.5
HPLM + 10% dialyzed FBS, 0.0211 µM	127	131	110
HPLM + 10% dialyzed FBS, 0.0632 µM	142	129	114
HPLM + 10% dialyzed FBS, 0.19 µM	136	130	117
HPLM + 10% dialyzed FBS, 0.569 µM	141	136	118
HPLM + 10% dialyzed FBS, 1.71 µM	152	134	115
HPLM + 10% dialyzed FBS, 5.12 µM	132	132	111
HPLM + 10% dialyzed FBS, 15.4 µM	124	116	73.9
HPLM + 10% dialyzed FBS, 46.1 µM	8.71	7.3	8.36
RPMI 5 mM glucose + 10% dialyzed FBS, 0.000781 µM	–	–	110
RPMI 5 mM glucose + 10% dialyzed FBS, 0.00234 µM	–	–	116
RPMI 5 mM glucose + 10% dialyzed FBS, 0.00702 µM	–	–	114
RPMI 5 mM glucose + 10% dialyzed FBS, 0.0211 µM	–	–	116
RPMI 5 mM glucose + 10% dialyzed FBS, 0.0632 µM	–	–	139
RPMI 5 mM glucose + 10% dialyzed FBS, 0.19 µM	–	–	104
RPMI 5 mM glucose + 10% dialyzed FBS, 0.569 µM	–	–	122
RPMI 5 mM glucose + 10% dialyzed FBS, 1.71 µM	–	–	119
RPMI 5 mM glucose + 10% dialyzed FBS, 5.12 µM	–	–	119
RPMI 5 mM glucose + 10% dialyzed FBS, 15.4 µM	–	–	55
RPMI 5 mM glucose + 10% dialyzed FBS, 46.1 µM	–	–	7.66

AUC of viability dose-response curve
Details	NOMO1 [6]	P12-Ichikawa [5]	SEM cells [4]
HPLM + 10% dialyzed FBS	452	450	440
RPMI 5 mM glucose + 10% FBS	453	452	431
RPMI 5 mM glucose + 10% dialyzed FBS	449	445	429

NC1CCC(N[C@@H]2C[C@H]2c2ccccc2)CC1 (some centres not stated)
cell viability [%]
Details	NOMO1 [3]	P12-Ichikawa [2]	SEM cells [1]
HPLM + 10% dialyzed FBS, 0.000781 µM	78.6	87.9	75.5
HPLM + 10% dialyzed FBS, 0.00234 µM	92.8	92.4	90
HPLM + 10% dialyzed FBS, 0.00702 µM	94.8	94.6	87.5
HPLM + 10% dialyzed FBS, 0.0211 µM	93.3	94.5	87.5
HPLM + 10% dialyzed FBS, 0.0632 µM	94.2	102	92.9
HPLM + 10% dialyzed FBS, 0.19 µM	108	102	92.8
HPLM + 10% dialyzed FBS, 0.569 µM	117	105	93.7
HPLM + 10% dialyzed FBS, 1.71 µM	108	99.5	76.4
HPLM + 10% dialyzed FBS, 5.12 µM	107	106	83.2
HPLM + 10% dialyzed FBS, 15.4 µM	111	94.7	82.3
HPLM + 10% dialyzed FBS, 46.1 µM	92	98.5	81.5
RPMI 5 mM glucose + 10% FBS, 0.000781 µM	95.3	92	120
RPMI 5 mM glucose + 10% FBS, 0.00234 µM	88.9	94.6	126
RPMI 5 mM glucose + 10% FBS, 0.00702 µM	101	106	114
RPMI 5 mM glucose + 10% FBS, 0.0211 µM	104	102	115
RPMI 5 mM glucose + 10% FBS, 0.0632 µM	101	102	119
RPMI 5 mM glucose + 10% FBS, 0.19 µM	89.4	100	124
RPMI 5 mM glucose + 10% FBS, 0.569 µM	94.4	95	146
RPMI 5 mM glucose + 10% FBS, 1.71 µM	89.8	76.6	106
RPMI 5 mM glucose + 10% FBS, 5.12 µM	94.3	100	111
RPMI 5 mM glucose + 10% FBS, 15.4 µM	100	102	105
RPMI 5 mM glucose + 10% FBS, 46.1 µM	93.3	91.2	98.9
RPMI 5 mM glucose + 10% dialyzed FBS, 0.000781 µM	95.5	92.2	84.2
RPMI 5 mM glucose + 10% dialyzed FBS, 0.00234 µM	97	98.1	98.5
RPMI 5 mM glucose + 10% dialyzed FBS, 0.00702 µM	96	105	99.8
RPMI 5 mM glucose + 10% dialyzed FBS, 0.0211 µM	96.8	99	96.7
RPMI 5 mM glucose + 10% dialyzed FBS, 0.0632 µM	100	96.5	98
RPMI 5 mM glucose + 10% dialyzed FBS, 0.19 µM	96.7	109	96.3
RPMI 5 mM glucose + 10% dialyzed FBS, 0.569 µM	85.5	103	106
RPMI 5 mM glucose + 10% dialyzed FBS, 1.71 µM	93.8	97.8	81.9
RPMI 5 mM glucose + 10% dialyzed FBS, 5.12 µM	99.7	98.2	92.4
RPMI 5 mM glucose + 10% dialyzed FBS, 15.4 µM	88	88.9	81.4
RPMI 5 mM glucose + 10% dialyzed FBS, 46.1 µM	84	84	74

AUC of viability dose-response curve
Details	NOMO1 [6]	P12-Ichikawa [5]	SEM cells [4]
HPLM + 10% dialyzed FBS	450	463	409
RPMI 5 mM glucose + 10% FBS	456	461	444
RPMI 5 mM glucose + 10% dialyzed FBS	450	467	441

Cc1cccc(C)c1NC(=O)CN1CCCC1=O
SEM cells [1], HPLM + 10% dialyzed FBS
Details	cell viability [%]
0.000781 µM	115
0.00234 µM	121
0.00702 µM	125
0.0211 µM	123
0.0632 µM	125
0.19 µM	122
0.569 µM	126
1.71 µM	129
5.12 µM	122
15.4 µM	116
46.1 µM	103

AUC of viability dose-response curve
Details	NOMO1 [6]	P12-Ichikawa [5]	SEM cells [4]
HPLM + 10% dialyzed FBS	463	444	470
RPMI 5 mM glucose + 10% FBS	458	434	461
RPMI 5 mM glucose + 10% dialyzed FBS	470	458	431

Cn1c2ccccc2c2c3c(c4c5ccccc5n(CCC#N)c4c21)CNC3=O
cell viability [%], SEM cells [1]
Details	HPLM + 10% dialyzed FBS	RPMI 5 mM glucose + 10% dialyzed FBS
0.000781 µM	109	123
0.00234 µM	118	103
0.00702 µM	142	159
0.0211 µM	119	130
0.0632 µM	111	124
0.19 µM	98.1	107
0.569 µM	55	52.7
1.71 µM	41	39.4
5.12 µM	25.7	19
15.4 µM	18.8	18.5
46.1 µM	17.6	11.2

AUC of viability dose-response curve
Details	NOMO1 [6]	P12-Ichikawa [5]	SEM cells [4]
HPLM + 10% dialyzed FBS	362	393	305
RPMI 5 mM glucose + 10% FBS	376	363	308
RPMI 5 mM glucose + 10% dialyzed FBS	367	367	300
